Laboratory results published in paper PMC4738272 (Scientific Reports, 2016).
Where “and” joins values, the source holds several entries; their conditions need not be identical. Equal entries are not always repeated. Entries after “also recorded” stand apart in the source; their conditions may differ.

What was measured:
[1] = tested on: iPSc differentiated Cardiomyocytes; test: MTT viability of cardiac module in 4-organ system; conditions: 4-organ co-culture under flow, serum-free medium, 48 h drug treatment, day 7, vs control, DOX 5 μM, ATR 100 μM, VPA 2 mM, APAP 5 mM, AMAP 5 mM
Description: (§1) The four organ in vitro systems were assembled, on day 0, by placing the corresponding surfaces cell side up in a specific chamber of the housing (liver coverslip into chamber 1, cardiac coverslips and cantilevers into chambers 2 and 4, muscle coverslips into chamber 5, and neuron coverslips into chamber 3 and they were then topped with the serum-free co-culture medium (1X Neurobasal Medium, 1X B27, 1X AB/AM, 1X Glutamax (all from Life Technologies)) before locking the system. Right after assembling, the medium was completely replaced with 4 mL of the co-culture defined serum-free medium and the systems placed on a rocking platform inside an incubator. Platforms were checked every day by inspecting for expected cell morphology inside the system and by replacing medium (1.2 mL total volume) from the two reservoirs (30% of the total volume was replaced) with fresh medium. Drug incubation was initiated on day 5 of the co-culture by addition of the drug through the reservoir closer to the liver chamber (no. 1), allowing a first contact of the drug with the liver. 20 μL of the drug stock solution (or vehicle) to achieve a working concentration in 4 mL of total volume in the platform was utilized. On day 6, after 24 hours of drug incubation, 6 μL of the drug stock solution (or vehicle) was added to the fresh medium exchange volume (1.2 mL). After 48 hour of drug incubation, on day 7, systems were disassembled to test organ functionality that same day. For mono-culture conditions, surfaces remained in a 12-well plated with 1 mL of the co-culture defined serum-free medium maintained by daily replacement of half volume.
(§2) Seven days after the initiation of the co-culture, viability of each organ chamber, except for neurons, was evaluated through an MTT assay. […] Cell viability was measured at 570 nm in a Synergy HT plate reader and KC4 software. The results were expressed as the percentage of cell survival relative to the control (untreated or incubated with vehicle). The neuronal fraction viability was evaluated through morphological analysis throughout the co-culture experiment as the final coverslips were used for patch-clamp electrophysiology. Phase images (10X) where obtained every day of the co-culture. Neuronal viability was evaluated by cell morphology integrity and by cell count from day 1 to day 14.

[2] = tested on: iPSc differentiated Cardiomyocytes; test: Cardiac beating frequency from video recordings; format: cell-based, human; conditions: 4-organ co-culture under flow, 48 h drug treatment, day 7, vs control; for Cardiomyocyte beating rate (beat frequency), decrease: DOX 5 μM, AMAP 5 mM; for Cardiomyocyte beating rate (beat frequency), increase: ATR 100 μM, VPA 2 mM, APAP 5 mM
Procedure: Seven or fourteen days after the co-culture, cardiac beating frequency was quantified from video recordings of three different areas of each of the cMEA surfaces, where the cardiomyocytes culture where located. Surfaces were located in a 37 °C bath platform containing co-culture medium with 50 mM HEPES on the stage of a Zeiss Axioscope 2FS upright microscope. Beats were counted in a period of 10 s, and the average number of 3 values was obtained. Drug effect was plotted as percentage of change compared to the control conditions.

Liver = tested on: Liver; parameters: method as in Literature; conditions: general toxic effects reported in the literature; ref Literature; cited from earlier work
neurons [3] = test: Neuron electrophysiology recording (patch clamp); format: cell-based, human; conditions: 4-organ co-culture under flow, 48 h drug treatment, day 7, vs control, DOX 5 μM, ATR 100 μM, APAP 5 mM, AMAP 5 mM; for Neuronal electrophysiology, overall effect: VPA 2 mM
Description: Electrophysiological properties of neuron cultures where recorded on the last day of co-culture following a previously described method. Values of firing, repetitive firing, spontaneous firing, inward sodium current, outward potassium current, action potential peak voltage and the resting membrane potential, characterized the mature functionality of neurons in the in vitro system. Drug alterations of the neuronal electrophysiology are discussed in this manuscript.

Muscle = tested on: Muscle; parameters: method as in Literature; conditions: general toxic effects reported in the literature; ref Literature; cited from earlier work
Cardiomyocytes = tested on: Cardiomyocytes; parameters: method as in Literature; conditions: general toxic effects reported in the literature; ref Literature; cited from earlier work
HepG2/C3A [4] = test: MTT viability of liver module in 4-organ system; format: cell-based, human; conditions: 4-organ co-culture under flow, serum-free medium, 48 h drug treatment, day 7, vs control, DOX 5 μM, ATR 100 μM, VPA 2 mM, APAP 5 mM, AMAP 5 mM
Description: as §1, §2

Neurons [5] = tested on: Neurons; parameters: method as in Literature; conditions: general toxic effects reported in the literature; ref Literature; cited from earlier work
Human Skeletal Myofibers [6] = test: MTT viability of skeletal muscle module in 4-organ system; conditions: 4-organ co-culture under flow, serum-free medium, 48 h drug treatment, day 7, vs control, DOX 5 μM, ATR 100 μM, VPA 2 mM, APAP 5 mM, AMAP 5 mM
Description: as §1, §2

HepG2/C3A [7] = test: Urea quantification, liver fraction of 4-organ system; format: cell-based, human; conditions: 4-organ co-culture under flow, 48 h drug treatment, vs control
Human Skeletal Myofibers [8] = test: Myotube stimulated contraction (binary: contracting or not); format: cell-based; conditions: 4-organ co-culture under flow, 48 h drug treatment, day 7, broad-field electrical stimulation, DOX 5 μM, ATR 100 μM, VPA 2 mM, APAP 5 mM, AMAP 5 mM
Procedure: Myotube contraction in coverslips was evaluated after the co-culture was finalized. Individual surfaces were evaluated as previously reported in the group. Drugs effects were quantify in a binary code mode, cells were or were not contracting.

HepG2/C3A [9] = test: Human Serum Albumin quantification (ELISA), liver fraction of 4-organ system; format: cell-based; conditions: 4-organ co-culture under flow, 48 h drug treatment, vs control, DOX 5 μM, ATR 100 μM, VPA 2 mM, APAP 5 mM, AMAP 5 mM
Procedure: Human Serum Albumin (HSA) production from the liver fraction was tracked throughout the co-culture, by measuring the HSA concentration in the supernatant of the culture as it represents liver protein anabolism. Samples were collected from the exchanged medium (1.2 mL) and stored at −20 °C until analysis. One freeze-thaw cycle occurred before samples were analyzed following manufacturers’ instructions provided in the ELISA Starter Accessory Kit (Bethyl Laboratories Inc, Cat #: E101). Samples were diluted as necessary in sample conjugate/diluent buffer to ensure readings measured within the range of the standard curve. The standard curve was prepared by serial dilutions of human reference serum in sample conjugate/diluent buffer (0–1600 ng/ml).
Final HSA concentrations were calculated in an excel file by first removing the average OD reading measured for blanks from average sample and standard OD readings. Concentrations of standard dilutions were plotted against average OD values measured in XY scatter plots. A standard curve was created by adding an order of 2 polynomial trendline to XY scatter plots and selecting the option to display the equation of the trendline, as well as the R^2 value, on each scatter plot (for ease of analysis HSA sigmoidal curves were split into 3 standard curves with HSA concentration ranges of 0–200 ng/ml, 200–800 ng/ml and […]). Quadratic equations were rearranged to make X (sample HSA concentration) the unknown variant. Y values (OD values) and a/b/c constants generated from trendline equations were inputted into rearranged quadratic equations per assay. HSA concentrations calculated were corrected accordingly for any differences in culture final volumes, sample dilutions during assays and cells number.

neurons [10] = test: Neuronal viability by morphological analysis and cell count in 4-organ system; conditions: 4-organ co-culture under flow, serum-free medium, 48 h drug treatment, day 7, vs control, DOX 5 μM, ATR 100 μM, VPA 2 mM, APAP 5 mM, AMAP 5 mM
Description: as §1, §2

[11] = therapeutic dosages; cited from earlier work
[12] = cited from earlier work

For `CC(=O)Nc1cccc(O)c1` [N-Acetyl-m-aminophenol], the “Cardiomyocyte viability, loss” value [1] was 28 ± 6% loss, the “Cardiomyocyte viability, loss” value ([1]; listed as AMAP) was 28 ± 6% and 30% and the “Cardiomyocyte beating rate (beat frequency), decrease” value [2] was 25 ± 4% decrease in beating rate. The “Cardiomyocyte beating rate (beat frequency), decrease” value ([2]; listed as AMAP) was 25 ± 4% and 30%, the “Drug effects on cell functionality, Liver, Literature” value (Liver) was “Toxicity not reported” and the “Drug effects on cell viability, Liver, Literature” value (Liver) was “Toxicity not reported”. For the same compound, the “Neuronal repetitive and spontaneous firing ability” value (neurons [3]) was “conserved”, the “Neuronal electrophysiology, overall effect” value (shortened to “Neuronal electrophysiology”) (neurons [3]) was “Normal electrophysiology” and the “Neuronal electrophysiology” value (neurons [3]; listed as AMAP) was “no significant changes compared to the control”. For the same compound, the “Drug effects on cell functionality, Muscle, Literature” value (Muscle) was “Toxicity not reported”, the “Drug effects on cell viability, Muscle, Literature” value (Muscle) was “Toxicity not reported” and the “Drug effects on cell functionality, Cardiomyocytes, Literature” value (Cardiomyocytes) was “Toxicity not reported”. The “Drug effects on cell viability, Cardiomyocytes, Literature” value (Cardiomyocytes) was “Toxicity not reported”, the “Liver (hepatocyte) cell viability, loss” value (HepG2/C3A [4]) was “Toxicity not observed” and the “Liver (hepatocyte) cell viability, loss” value (HepG2/C3A [4]; listed as AMAP) was “No significant effects”. For the same compound, the “Drug effects on cell functionality, Neurons, Literature” value (Neurons [5]) was “Toxicity not reported”, the “Drug effects on cell viability, Neurons, Literature” value (Neurons [5]) was “Toxicity not reported” and the “Skeletal muscle viability, loss” value (Human Skeletal Myofibers [6]) was “Toxicity not observed”. The “Skeletal muscle viability, loss” value (Human Skeletal Myofibers [6]; listed as AMAP) was “not affected”, the “Urea production, increase” value (HepG2/C3A [7]; DOX 5 μM, ATR 100 μM, APAP 5 mM, AMAP 5 mM) was 138 ± 19% and the “Skeletal muscle loss of contractile ability (share of cultures in which contraction ceased)” value (Human Skeletal Myofibers [8]) was “No loss in contractile ability”. For the same compound, the “Skeletal muscle loss of contractile ability (share of cultures in which contraction ceased)” value (Human Skeletal Myofibers [8]; listed as AMAP) was “not affected”, the “HSA (albumin) production, increase” value (HepG2/C3A [9]) was 23 ± 4% and the “Neuronal cell viability, loss (cell loss by morphology/cell count)” value (neurons [10]) was “Toxicity not observed, some increase in cell numbers but not significant”. For the same compound, the “Neuronal cell viability, loss (cell loss by morphology/cell count)” value (neurons [10]; listed as AMAP) was “No significant effects; also recorded: some increase in cell numbers; also recorded: no change in viability”.

For `CCCC(CCC)C(=O)O` [Valproic Acid, Valproic acid], the “Cardiomyocyte beating rate (beat frequency), increase” value [2] was 38 ± 18% increase in beating frequency, the “Cardiomyocyte beating rate (beat frequency), increase” value ([2]; listed as VPA) was 38 ± 18% and the “Neuronal electrophysiology” value (neurons [3]) was “Normal electrophysiology”. For the same compound, the “Neuronal electrophysiology” value (neurons [3]; listed as VPA) was “no changes compared to the control; also recorded: maintained the electrophysiological parameters”, the “Drug effects on cell functionality, Muscle, Literature” value (Muscle) was “Toxicity not reported” and the “Drug effects on cell viability, Muscle, Literature” value (Muscle) was “Toxicity not reported”. The “Drug effects on cell functionality, Cardiomyocytes, Literature” value (Cardiomyocytes) was “Cardio-protective effect”, the “Drug effects on cell viability, Cardiomyocytes, Literature” value (Cardiomyocytes) was “Cardio-protective effect” and the “Drug effects on cell functionality, Neurons, Literature” value (Neurons [5]) was “Toxicity not reported”. For the same compound, the “Drug effects on cell viability, Neurons, Literature” value (Neurons [5]) was “Toxicity not reported”, the “Urea production, decrease” value (HepG2/C3A [7]; VPA 2 mM) was 13 ± 2% and the “HSA (albumin) production, increase” value (HepG2/C3A [9]) was “not affected”. For the same compound, the “HSA (albumin) production, increase” value (HepG2/C3A [9]; listed as VPA) was “no changes”, the “Concentration detected in patient plasma” value [11] was 300 to 700 µM and the “Concentration known to be cytotoxic in vitro” value [12] was “around 2 mM”.
